Measured values taken from patent US5843402A, “Synthetic peptides for use in thrombus detection” (Antisoma Research Limited, priority 1989, dated 1998).

Columns and labels:
[1] = test system: ADP (1 × 10^-5 M)-induced platelet aggregation; assay: Inhibition of ADP-induced platelet aggregation; assay type: cell-based
Experimental: The effect of these peptides on ADP-induced platelet aggregation was determined and compared with peptide RGDS which is known to inhibit platelet aggregation.

[2] = test system: activated platelets in whole blood (ADP stimulated blood); assay: Binding of radiolabelled peptides to ADP stimulated blood
Experimental: (§1) The results (Table 2) indicate that all four peptides can bind platelets in ADP stimulated blood and that higher incorporation can be achieved In clotted blood.
(§2) Iodogen tubes were prepared by dissolving Iodogen (1, 3, 4, 6-Tetrachloro-3α, 6α-diphenylglycouril) in chloroform at a concentration of 1 mg.ml-^1. Aliquots of 50 μl (50 μg Iodogen) were dispensed into polypropylene cryo-tubes and the chloroform evaporated to dryness. These tubes were then stored dessicated at -20° C. until required.
(§3) Prior to radiolabelling the peptides were dissolved in phosphate buffered saline (PBS) at a concentration of 50 mg.ml-^1. RGDSYC and […] were first dissolved in a small volume of dimethyl sulphoxide (DMSO) such that the final concentration of DMSO in PBS was 1% v/v.
(§4) Iodogen tubes were equilibrated to room temperature before the addition of 200 μl peptide solution and 1-10 μl of ^123 I (in aqueous solution). The reaction mixture was then left for 15min at room temperature with occasional shaking. Following the incubation period the reaction mixture was removed and passed through a Sephadex G10 column which had been equilibrated with PBS. The column, which separates radiolabelled peptide from free iodine was eluted with PBS and 2 ml fractions collected. Radioactivity in the fractions was measured and the eluted peptides, represented by the first radioactive peak from the column, collected and stored at 4° C. until required.

clotted blood = assay: Binding of radiolabelled peptides to clotted blood
Experimental: as §1, §2, §3, §4

## RGDSCRGDSY
[1]; peptide 0.1 mM
  percentage inhibition of ADP-induced platelet aggregation: 17%
[1]; peptide 0.2 mM
  percentage inhibition of ADP-induced platelet aggregation: 57%
[1]; peptide 0.4 mM
  percentage inhibition of ADP-induced platelet aggregation: 79%
[2]; 1 ng radiolabelled peptide
  bound peptide: 0.01 ng
[2]; 10 ng radiolabelled peptide
  bound peptide: 0.85 ng
[2]; 100 ng radiolabelled peptide
  bound peptide: 9.07 ng
Clotted blood; 1 ng radiolabelled peptide
  bound peptide: 0.28 ng
Clotted blood; 10 ng radiolabelled peptide
  bound peptide: 2.64 ng
Clotted blood; 100 ng radiolabelled peptide
  bound peptide: 29.33 ng
